Measurements as given in patent US7235534B2, “Antisense strategy to modulate estrogen receptor response (ER α and/or ER β )” (Institut de Cardiologie de Montreal, priority 2001, dated 2007).

Experiments:
p42/44 MAPK = assay: Western blot of p42/44 MAPK phosphorylation in PSMC; assay type: cell-based, porcine
Procedure: Confluent PAEC and PSMC were starved for 7 hours in DMEM and antibiotics. Culture medium was removed, and cells were rinsed twice with ice-cold DMEM. PSMC were incubated on ice in DMEM with or without 17βE (10^−8M) for 30 min, incubated at 37° C. for 5, 10, 15 and 30 min, then brought back on ice. Cell were then rinsed with cold DMEM, incubated on ice in DMEM, bovine serum albumin (1 mg/ml), PDGF-BB (10 ng/ml) for 30 min, incubated at 37° C. for 5 min, and then brought back on ice. PAEC were incubated on ice in DMEM with or without 17βE (10^−7M) for 30 min, then incubated at 37° C. for 5, 10, 15 and 30 min and brought back on ice. […] Total proteins were prepared by the addition of 500 μl of lysis buffer containing phenylmethylsulfonyl fluoride 1 mM, leupeptin 10 μg/ml, aprotinin 30 μg/ml, and NaVO3 1 mM (Sigma). Plates were incubated at 4° C. for 30 min and scraped, and the protein concentration was determined with a Bio-Rad protein kit (Bio-Rad, Hercules, Calif.). Same protein quantity for each cell type and condition were dissolved in Laemmli's buffer, boiled for 5 min in reducing conditions, separated by a 10% gradient SDS-PAGE (Protean II kit; Bio-Rad), and transblotted onto a 0.45-μm polyvinylidene difluoride membranes (Millipore Corp., Bedford, Mass.). The membranes were blocked in 5% Blotto-TTBS (5% nonfat dry milk; Bio-Rad), 0.05% Tween 20, 0.15 M NaCl, 25 mM Tris-HCl, pH 7.5) for 1 h at room temperature with gentle agitation and incubated overnight at 4° C. in 0.5% Blotto-TTBS with the addition of an anti-phospho p42/44 MAPK or an anti-phospho p38 MAPK rabbit polyclonal antiserums (α-pp42/44; dilution of 1:10 000, and α-pp38; dilution 1:5000, New England BioLabs, Beverly, Mass.). Membranes were washed with TTBS, and incubated at room temperature with an anti-rabbit IgG antibody coupled to horseradish peroxidase (dilution 1:10 000–1:20 000, Santa Cruz Biotechnology, Santa Cruz, Calif.) in 0.5% Blotto-TTBS for 30 min. […] Kaleidoscope molecular weight and SDS-plyacrylamide gel electrophoresis broad range marker proteins (Bio-Rad) were used as standards for SDS-plyacrylamide gel electrophoresis. Digital image densitometry (PDI Bioscience, Aurora, ON) was performed on x-ray film to determine relative percentages of p42/44 and p38 MAPK phosphorylation.
Confluent PAEC and PSMC were preteated with or without antisense sequences as described above for Western Blot analysis. Cells were rinsed twice with ice-cold DMEM. PSMC and PAEC were stimulated with or without 17βE (10^−8 mol/L) as previously described (Geraldes P). […] Same quantity of protein was separated by a 10% gradient SDS-PAGE (Protean II kit; Bio-Rad), and transblotted onto a 0.45-μm polyvinylidene difluoride membranes (Millipore Corp.). […]

[1] = local delivery upon porcine coronary angioplasty; cited from earlier work

C[C@]12CC[C@@H]3c4ccc(O)cc4CC[C@H]3[C@@H]1CC[C@@H]2O [17βE, 17-beta-estradiol]
time of maximum inhibition of PDGF-BB-induced p42/44 MAPK phosphorylation (p42/44 MAPK; 17βE 10^−8M pretreatment, PDGF-BB 5 minutes): 30 min
reversal of PDGF-BB-increased p42/44 MAPK phosphorylation (p42/44 MAPK; 17βE 10^−8 mol/L 30 minutes, Example 2): reversed
reduction of PDGF-BB induced phosphorylation of p42/44 MAPK (p42/44 MAPK; 17βE for 30 min): 100%
change in basal phosphorylation of p42/44 MAPK (p42/44 MAPK; substance alone, data not shown): did not observe any change
reduction of the degree of restenosis [1]: up to 50%
